Experimental data as given in US11299760B2 (Amgen Inc., priority 2013, dated 2022).

Legend:
Assay type in all cases: cell-based, Chinese hamster
MAb A producing cells = assay: GM130 immunofluorescence microscopy of Golgi; conditions: day 10 mock perfusion cultures; monensin-treated vs control
Method: (§1) On day 10, cell pellets were washed once with cold PBS and fixed in 4% paraformaldehyde for 10 minutes on ice. Cells were then washed once in again in cold PBS and stored at 4° C. until they were immunofluorescently stained as described below
(§2) Monensin is known to cause gross changes in Golgi architecture characterized by swollen and fragmented cisternae. The structure of the Golgi of CHO production cell lines after monensin treatment was analyzed using a panel of five different commercially available antibodies against various Golgi proteins with a passaging culture of recombinant cells producing MAb A using immunofluorescence microscopy.
(§3) Next, day 10 control and monensin-treated mock perfusion cultures of MAb A producing cells and MAb C producing cells were subjected to immunofluorescence microscopy using GM130 antibody. Paraformaldehyde fixed cell pellets were permeablized with 0.1% TritonX-100 made in PBS. Pellets were washed with PBSA (0.5% BSA in PBS) and incubated with GM130 antibody (BD Biosciences, San Jose, Calif.) diluted 1:50 in PBSA. Cells were washed thrice with PBSA and incubated with Alexa 488 conjugated mouse secondary antibody (Invitrogen, Grand Island, N.Y.) diluted 1:1000 in PBSA. […] Images were captured using Zeiss 510 microscope (Carl Zeiss, Inc., Jena, Germany) with 63× water immersion lens and analyzed using LSM image browser software.

MAb C producing cells = assay: GM130 immunofluorescence microscopy of Golgi; conditions: day 10; increasing monensin culminating at 100 nM from days 7-10
Method: as §1, §2, §3

[1] = system: recombinant CHO cell line producing an antibody (MAb A); assay: six day batch assay, glycan analysis (HILIC); design: Total HM: unit not given here; conditions: for Man5 / Man6 / Man7 / Man8a / Man8b / Total HM: day 6
Method: Cells were centrifuged at 1500 rpm for five minutes and seeded at 2×10^6 cells per ml into batch production medium in a 24 deep-well plate at a final volume of 3 ml.
Cell density and viability were measured by Guava easyCyte flow cytometer (Milipore, Billerica, Mass.) with the ViaCount application. Cultures were spun down, supernatants were filtered on 0.4 micron filters, and were analyzed for titer and glycan distribution.
For glycan analysis, Peptide-N-Glycosidase F (PNGAse F)—released N-linked glycans from protein A purified antibodies were labeled with 2-aminobenzoic acid (2-AA) and separated by HILIC (hydrophilic interaction liquid chromatography) in-line with a fluorescence detector. The separation was performed using a Waters Acquity UPLC (Waters, Milford, Mass.). In-line mass spectrometry (MS), using an ion trap mass spectrometer (LTQ; Thermo Scientific, Waltham, Mass.) in positive mode, was incorporated to accommodate mass determination of species. Glycans were injected and bound to the column in high organic conditions and were then eluted with an increasing gradient of an aqueous ammonium formate buffer. Fast separation times were achieved using a […] small particle column format (Acquity UPLC BEH Glycan Column, 2.1×100 mm; Waters, Milford, Mass.).

[2] = system: production cell lines (MAb A, MAb B, MAb C, MAb D); assay: mock perfusion assay, glycan analysis, all four production cell lines
Method: Mock perfusion assay is a small scale, plate-based assay that is designed to mimic perfusion conditions in bioreactors through daily medium exchanges. For a 10-day mock perfusion assay, passaging cultures of various production cell lines were diluted 1:5 into chemically defined base perfusion medium in a 24 deep-well plate at a final volume of 3 ml per well. Mock perfusion was initiated on day 3 when the cells were spun down at 1000 rpm for 5 minutes and 25% of each spent culture medium was exchanged with the equivalent volume of fresh perfusion media. Subsequent medium exchange percentages were 40% on days 4-8 and 50% on day 9. Exchanged supernatants were stored at 4° C. prior to analysis.
Analysis of cell culture parameters was also started on day 3; viable cell density and viability were analyzed using the ViaCount Guava assay as previously described. Glucose was measured daily starting on day 3 and was maintained at 12 g/l. Stored supernatants were analyzed for antibody titer as described previously. Samples of supernatant fluid from days 6, 8 and 10 were also analyzed for the presence and type of glycans by HILIC analysis.
The cell lines used included three production cell lines that are known to generate mAbs with low high mannose glycans (MAb A, MAb B and MAb C) and one production cell line that consistently produces product with high levels of high mannose glycans (MAb D). […]

CC[C@@]1([C@@H]2O[C@@H]([C@H]3O[C@@](O)(CO)[C@H](C)C[C@@H]3C)C[C@@H]2C)CC[C@H]([C@]2(C)CC[C@]3(C[C@H](O)[C@@H](C)[C@@H]([C@@H](C)[C@@H](OC)[C@H](C)C(=O)O)O3)O2)O1 [monensin]
Golgi morphology (GM130 staining) (MAb A producing cells): No morphological difference
Golgi morphology (GM130 staining) (MAb C producing cells): punctate distribution of GM130 protein
Man5 ([1]; 0.1 nM monensin added day 1): 0.775%
Man6 ([1]; 0.1 nM monensin added day 1): 0.09%
Man7 ([1]; 0.1 nM monensin added day 1): 0%
Man8a ([1]; 0.1 nM monensin added day 1): 0.31%
Man8b ([1]; 0.1 nM monensin added day 1): 0%
Total HM ([1]; 0.1 nM monensin added day 1): 0.8
Man5 ([1]; 0.5 nM monensin added day 1): 0.785%
Man6 ([1]; 0.5 nM monensin added day 1): 0.07%
Man7 ([1]; 0.5 nM monensin added day 1): 0%
Man8a ([1]; 0.5 nM monensin added day 1): 0.3%
Man8b ([1]; 0.5 nM monensin added day 1): 0%
Total HM ([1]; 0.5 nM monensin added day 1): 0.85
Man5 ([1]; 1 nM monensin added day 1): 0.89%
Man6 ([1]; 1 nM monensin added day 1): 0.13%
Man7 ([1]; 1 nM monensin added day 1): 0.04%
Man8a ([1]; 1 nM monensin added day 1): 0.29%
Man8b ([1]; 1 nM monensin added day 1): 0%
Total HM ([1]; 1 nM monensin added day 1): 1.05
Man5 ([1]; 5 nM monensin added day 1): 1.12%
Man6 ([1]; 5 nM monensin added day 1): 0.18%
Man7 ([1]; 5 nM monensin added day 1): 0.27%
Man8a ([1]; 5 nM monensin added day 1): 0.37%
Man8b ([1]; 5 nM monensin added day 1): 0%
Total HM ([1]; 5 nM monensin added day 1): 1.35
Man5 ([1]; 10 nM monensin added day 1): 1.485%
Man6 ([1]; 10 nM monensin added day 1): 0.16%
Man7 ([1]; 10 nM monensin added day 1): 0%
Man8a ([1]; 10 nM monensin added day 1): 0.315%
Man8b ([1]; 10 nM monensin added day 1): 0%
Total HM ([1]; 10 nM monensin added day 1): 1.6
increase of total high mannose glycans on the recombinant antibody ([1]; 25 nM bolus on day 0 or 200 nM or 100 nM bolus on day 3): 6 to 30 fold
Man5 ([1]; 25 nM monensin added day 1): 6.43%
Man6 ([1]; 25 nM monensin added day 1): 0.59%
Man7 ([1]; 25 nM monensin added day 1): 0.59%
Man8a ([1]; 25 nM monensin added day 1): 0.39%
Man8b ([1]; 25 nM monensin added day 1): 0.115%
Total HM ([1]; 25 nM monensin added day 1): 7.65
effect on high mannose and on cell growth, viability and titer ([1]; 50 nM incubated for six days and 500 nM incubated for three days): large increases in high mannose at the expense of cell growth, viability and titer
Man5 ([1]; 50 nM monensin added day 1): 15.725%
Man6 ([1]; 50 nM monensin added day 1): 4.64%
Man7 ([1]; 50 nM monensin added day 1): 4.73%
Man8a ([1]; 50 nM monensin added day 1): 0.8%
Man8b ([1]; 50 nM monensin added day 1): 2.02%
Total HM ([1]; 50 nM monensin added day 1): 25.1
Man5 ([1]; 100 nM monensin added day 3): 19.365%
Man6 ([1]; 100 nM monensin added day 3): 7.475%
Man7 ([1]; 100 nM monensin added day 3): 6.795%
Man8a ([1]; 100 nM monensin added day 3): 0.8%
Man8b ([1]; 100 nM monensin added day 3): 2.635%
Total HM ([1]; 100 nM monensin added day 3): 33.65
Man5 ([1]; 200 nM monensin added day 3): 18.585%
Man6 ([1]; 200 nM monensin added day 3): 4.975%
Man7 ([1]; 200 nM monensin added day 3): 3.795%
Man8a ([1]; 200 nM monensin added day 3): 0.61%
Man8b ([1]; 200 nM monensin added day 3): 1.17%
Total HM ([1]; 200 nM monensin added day 3): 27.35
Man5 ([1]; 500 nM monensin added day 3): 11.735%
Man6 ([1]; 500 nM monensin added day 3): 1.545%
Man7 ([1]; 500 nM monensin added day 3): 1.045%
Man8a ([1]; 500 nM monensin added day 3): 0.355%
Man8b ([1]; 500 nM monensin added day 3): 0.2%
Total HM ([1]; 500 nM monensin added day 3): 14.3
impact on high mannose or cell culture parameters ([1]; monensin concentrations between 0.1 to 10 nM): no impacts on high mannose or cell culture parameters
effect on high mannose glycans ([2]; all four antibody products, mock perfusion): increased high mannose glycans on all four antibody products tested in a dose dependent manner
increase of high mannose levels compared to the control samples ([2]; antibodies collected on day 10, depending on the monensin dose): 1.5 to 15 fold
